Results taken from patent US20260285850A1, “SUBSTITUTED OXAZOLIDINONES AND IMIDAZOLINONES AS HERBICIDES” (FMC CORPORATION, priority 2023, published 2026).

How the values were obtained:
Assay type in all cases: in vivo
[1] = system: galium (catchweed bedstraw, Galium aparine); assay: Test A postemergence application, visual injury rating 0-100
Method in brief: (§1)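 Preemergence directed soil spray or postemergence spray (2-10 cm, 1-2 leaf); loam/sand mix; compound in non-phytotoxic solvent + surfactant. Greenhouse, 10 d. Visual injury vs untreated, 0 = none, 100 = complete control.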

[2] = system: horseweed (Erigeron canadensis); assay: as above
Method in brief: as §1

kochia (Bassia scoparia) [3] = assay: as above
Method in brief: as §1

[4] = system: blackgrass (Alopecurus myosuroides); assay: as above
Method in brief: as §1

[5] = system: palmer (palmer amaranth, palmer pigweed, Amaranthus palmeri); assay: as above
Method in brief: as §1

soybean (Glycine max) [6] = assay: as above
Method in brief: as §1

[7] = system: wheat (Triticum aestivum); assay: as above
Method in brief: as §1

[8] = system: green foxtail (Setaria viridis); assay: as above
Method in brief: as §1

[9] = system: ryegrass, Italian (italian ryegrass, Lolium multiflorum); assay: as above
Method in brief: as §1

corn (Zea mays) [10] = assay: as above
Method in brief: as §1

[11] = system: oat, wild (wild oat, Avena fatua); assay: as above
Method in brief: as §1

[12] = system: ragweed (common ragweed, Ambrosia artemisiifolia); assay: as above
Method in brief: as §1

[13] = system: barnyardgrass (Echinochloa crus-galli); assay: as above
Method in brief: as §1

[14] = system: barnyardgrass (Echinochloa crusgalli); assay: Test B flooded paddy test, visual plant response rating 0-100; details: 250 g ai/ha, Flood, applied to paddy water, evaluated after 13 days
Method in brief: (§2)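 Plants were grown to the 2-leaf stage, then pots were flooded to 3 cm above the soil and compound was applied directly to the paddy water, with that depth kept throughout.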

[15] = system: ducksalad (Heteranthera limosa); assay: as above; details: 250 g ai/ha, Flood, applied to paddy water, evaluated after 13 days
Method in brief: as §2

rice (Oryza sativa) = assay: as above; details: 250 g ai/ha, Flood, applied to paddy water, evaluated after 13 days
Method in brief: as §2

[16] = system: sedge, umbrella (small-flower umbrella sedge, Cyperus difformis); assay: as above; details: 250 g ai/ha, Flood, applied to paddy water, evaluated after 13 days
Method in brief: as §2

kochia (Bassia scoparia) [17] = assay: Test A preemergence soil spray, visual injury rating 0-100; details: 10 days
Method in brief: as §1

[18] = system: blackgrass (Alopecurus myosuroides); assay: as above; details: 10 days
Method in brief: as §1

[19] = system: palmer (palmer amaranth, palmer pigweed, Amaranthus palmeri); assay: as above; details: 10 days
Method in brief: as §1

soybean (Glycine max) [20] = assay: as above; details: 10 days
Method in brief: as §1

[21] = system: wheat (Triticum aestivum); assay: as above; details: 10 days
Method in brief: as §1

[22] = system: green foxtail (Setaria viridis); assay: as above; details: 10 days
Method in brief: as §1

[23] = system: ryegrass, Italian (italian ryegrass, Lolium multiflorum); assay: as above; details: 10 days
Method in brief: as §1

corn (Zea mays) [24] = assay: as above; details: 10 days
Method in brief: as §1

[25] = system: oat, wild (wild oat, Avena fatua); assay: as above; details: 10 days
Method in brief: as §1

[26] = system: ragweed (common ragweed, Ambrosia artemisiifolia); assay: as above; details: 10 days
Method in brief: as §1

[27] = system: barnyardgrass (Echinochloa crus-galli); assay: as above; details: 10 days
Method in brief: as §1

[28] = 62 g ai/ha, postemergence, 10 days, 0 = no effect, 100 = complete control
[29] = Postemergence, 16 g ai/ha, greenhouse 10 days, 0 no effect, 100 complete control
[30] = 62 g ai/ha, 0 = no effect, 100 = complete control

SMILES: CC1(C(=O)NC2CC=C(C(=O)OCC(F)(F)F)C2)CN(c2cc(Cl)cc(Cl)c2)C(=O)O1 (stereo not shown) [Compound 96]
- Galium plant response rating (0-100) [1, 28]: 90
- Galium plant response rating (0 to 100 scale) [1, 29]: 70
- Horseweed plant response rating (0-100) [2, 28]: 70
- Horseweed plant response rating (0 to 100 scale) [2, 29]: 40
- Kochia plant response rating (0-100) (kochia (Bassia scoparia) [3]; [28]): 80
- Kochia plant response rating (0 to 100 scale) (kochia (Bassia scoparia) [3]; [29]): 70
- Blackgrass plant response rating (0-100) [4, 28]: 90
- Blackgrass plant response rating (0 to 100 scale) [4, 29]: 80
- Pigweed, Palmer plant response rating (0-100) [5, 28]: 90
- Pigweed, Palmer plant response rating (0 to 100 scale) [5, 29]: 70
- Soybean plant response rating (0-100) (soybean (Glycine max) [6]; [28]): 80
- Soybean plant response rating (0 to 100 scale) (soybean (Glycine max) [6]; [29]): 80
- Wheat plant response rating (0-100) [7, 28]: 90
- Wheat plant response rating (0 to 100 scale) [7, 29]: 30
- Foxtail, Green plant response rating (0-100) [8, 28]: 90
- Foxtail, Green plant response rating (0 to 100 scale) [8, 29]: 90
- Ryegrass, Italian plant response rating (0-100) [9, 28]: 90
- Ryegrass, Italian plant response rating (0 to 100 scale) [9, 29]: 80
- Corn plant response rating (0-100) (corn (Zea mays) [10]; [28]): 100
- Corn plant response rating (0 to 100 scale) (corn (Zea mays) [10]; [29]): 100
- Oat, Wild plant response rating (0-100) [11, 28]: 80
- Oat, Wild plant response rating (0 to 100 scale) [11, 29]: 50
- Ragweed plant response rating (0-100) [12, 28]: 60
- Ragweed plant response rating (0 to 100 scale) [12, 29]: 40
- Barnyardgrass plant response rating (0-100) [13, 28]: 100
- Barnyardgrass plant response rating (0 to 100 scale) [13, 29]: 100
- Plant response rating, Barnyardgrass (0 to 100 scale, 0 is no effect and 100 is complete control) [14]: 95
- Plant response rating, Ducksalad (0 to 100 scale, 0 is no effect and 100 is complete control) [15]: 70
- Plant response rating, Rice (0 to 100 scale, 0 is no effect and 100 is complete control) (rice (Oryza sativa)): 25
- Plant response rating, Sedge, Umbrella (0 to 100 scale, 0 is no effect and 100 is complete control) [16]: 95
- Kochia plant response rating (kochia (Bassia scoparia) [17]; 16 g ai/ha, 0 to 100 scale): 0
- Kochia plant response rating (0-100) (kochia (Bassia scoparia) [17]; [30]): 0
- Blackgrass plant response rating ([18]; 16 g ai/ha, 0 to 100 scale): 0
- Blackgrass plant response rating (0-100) [18, 30]: 0
- Pigweed, Palmer plant response rating ([19]; 16 g ai/ha, 0 to 100 scale): 100
- Pigweed, Palmer plant response rating (0-100) [19, 30]: 90
- Soybean plant response rating (soybean (Glycine max) [20]; 16 g ai/ha, 0 to 100 scale): 10
- Soybean plant response rating (0-100) (soybean (Glycine max) [20]; [30]): 30
- Wheat plant response rating ([21]; 16 g ai/ha, 0 to 100 scale): 0
- Wheat plant response rating (0-100) [21, 30]: 0
- Foxtail, Green plant response rating ([22]; 16 g ai/ha, 0 to 100 scale): 10
- Foxtail, Green plant response rating (0-100) [22, 30]: 90
- Ryegrass, Italian plant response rating ([23]; 16 g ai/ha, 0 to 100 scale): 20
- Ryegrass, Italian plant response rating (0-100) [23, 30]: 60
- Corn plant response rating (corn (Zea mays) [24]; 16 g ai/ha, 0 to 100 scale): 0
- Corn plant response rating (0-100) (corn (Zea mays) [24]; [30]): 40
- Oat, Wild plant response rating ([25]; 16 g ai/ha, 0 to 100 scale): 0
- Oat, Wild plant response rating (0-100) [25, 30]: 20
- Ragweed plant response rating ([26]; 16 g ai/ha, 0 to 100 scale): 0
- Ragweed plant response rating (0-100) [26, 30]: 0
- Barnyardgrass plant response rating ([27]; 16 g ai/ha, 0 to 100 scale): 10
- Barnyardgrass plant response rating (0-100) [27, 30]: 60
